Consider 1 compound from article PMC9841533, “Microtubule-Stabilizing 1,2,4-Triazolo[1,5-a]pyrimidines as Candidate Therapeutics for Neurodegenerative Disease: Matched Molecular Pair Analyses and Computational Studies Reveal New Structure–Activity Insights” (Journal of Medicinal Chemistry, 2022).

The test system of series [1] is de-tyrosinated α-tubulin (GluTub) in brain of WT mice. Briefly: Brain PD: Glu-tubulin in brain tissue after compound treatment. The format is in vivo, mouse. As to conditions: WT CD-1 mice, 1 mg/kg i.p. once daily for two consecutive days. As to the method: Finally, to evaluate target engagement in the CNS, PD studies were conducted to determine compound-dependent elevations in the stable MT marker, de-tyrosinated α-tubulin (GluTub), in brain homogenates from compound-treated WT mice.
All animal protocols were approved by the University of Pennsylvania Institutional Animal Care and Use Committee (IACUC). […] Compounds were diluted from 20 or 40 mM DMSO stock solutions into 30% Kolliphor EL (Sigma-Aldrich) phosphate-buffered saline, pH 7.4. After 4 h following the second injection, mice were euthanized and cortices and hippocampi were isolated from each brain and placed in 0.2 mL of ice-cold radioimmunoprecipitation assay (RIPA) buffer (50 mM Tris, 150 mM NaCl, 5 mM EDTA, 0.5% sodium deoxycholate, 1% NP-40, 0.1% sodium dodecyl sulfate (SDS), pH 8.0) containing protease inhibitor (PI) cocktail (Sigma-Aldrich), 1 mM phenylmethylsulfonyl fluoride (PMSF) (Sigma-Aldrich), and 3 μM trichostatin A (TSA) (Sigma-Aldrich). The brain samples were homogenized with a handheld battery-operated mixer and subsequently sonicated. After centrifugation at 100,000g for 30 min at 4 °C, supernatant samples were transferred to a new tube and the pellets were resuspended in 0.15 mL of RIPA buffer and again homogenized, sonicated, and centrifuged. The supernatant from the second centrifugation was pooled with that from the first. The combined supernatant samples were assessed for protein concentration using a BCA assay (Thermo Fisher Scientific), and equal protein amounts from each brain sample underwent separation by 10% sodium dodecyl sulfate polyacrylamide gel electrophoresis (SDS-PAGE) followed by transfer onto nitrocellulose membranes essentially as previously described.[11] […] Incubation with infrared dye-conjugated secondary antibodies and subsequent imaging and quantification of the blots on the Odyssey imaging system were as described.[11]

Series [2] relates to total α-tubulin (α-Tub) levels in QBI293 cells. Briefly: QBI293 cell assay: total α-tubulin ELISA. The format is cell-based. A digest of the protocol: (§1)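 AcTub and α-Tub were quantified by ELISA in whole-cell extracts normalized by BCA protein and expressed relative to vehicle. AcTub changes were also scaled to a 100 nM reference stabilizer control.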
On the technique in general: An ELISA detects its analyte on a solid surface through an enzyme-linked reagent.

The nature of series [3]: Resazurin cell viability assay, QBI293. It counts as cell-based. As to conditions: human, QBI293 cells, three biological replicates, read-out: QBI293 CC50 ± SD. As to the method: (§2) Cell Culture. QBI293 and HeLa cells were cultured in DMEM supplemented with 10% heat-
(§3) inactivated FBS and 1% penicillin-streptomycin. Cells were grown in T175 cell culture flasks maintained
(§4) at 37 ℃ in 5% CO2 and sub-c ultured when at 60-8 0% cell confluence.
(§5) Resazurin Cell Viability Assay. Cytotoxicity in QBI293 and HeLa cells was measured using the
(§6) resazurin cell viability assay.1 Test compounds were serially diluted in DMSO and added to 96-well
(§7) polystyrene assay plates to give final assay concentrations ranging from 100 nM to 4000 nM (1 µL; 1%
(§8) total DMSO). Fresh medium was added to the assay plate (49 µL/well). QBI293 or HeLa cells were
(§9) cells/well. Assay plates were incubated at 37 °C and 5% CO2 for 48 h, followed by addition of 20 µL 0.5
(§10) mM resazurin (Alfa Aesar, Cat. B21187) in PBS to each well. Assay plates were incubated in the dark for
(§11) (1 picture or pasted object on this page, not shown here)
(§12) 4 h at 37 °C. Fluorescence was measured at 531 nm and 595 nm excitation and emission wavelengths,
(§13) respectively, using a 2104 EnVision® multilabel plate reader. The viability of each well was normalized to
(§14) positive and negative controls in each assay plate. Dose-response curves were generated and CC50 values
(§15) calculated with GraphPad Prism, version 9.3 (San Diego, CA) using a sigmoidal four parameter logistic
(§16) curve. The means ± standard deviations from three biological replicates are shown.
(§17) (1) O'Brien, J.; Wilson, I.; Orton, T.; Pognan, F. Investigation of the Alamar Blue (resazurin) fluorescent
(§18) dye for the assessment of mammalian cell cytotoxicity. Eur. J. Biochem. 2000, 267 (17), 5421-5426.
For orientation: Alamar Blue is a resazurin reagent that responds to reducing activity.

A short description of series [4]: Resazurin cell viability assay, HeLa. As to conditions: human, HeLa cells, three biological replicates, read-out: HeLa CC50 ± SD. It counts as cell-based. The method, then: as §2, §3, §4, §5, §6, §7, §8, §9, §10, §11, §12, §13, §14, §15, §16, §17, §18
Series [5] concerns acetylated α-tubulin (AcTub) levels in QBI293 cells. Briefly: QBI293 cell assay of MT stabilization: acetylated α-tubulin ELISA. It counts as cell-based. A digest of the protocol:
as §1

Structures are written as SMILES. Like-named read-outs stand apart in the source and are kept apart here.

Usually CC50 stands for the concentration that lowers cell viability or growth by half.

As to `C[C@@H](Nc1c(-c2c(F)cc(C#CCCO)cc2F)c(Cl)nc2ncnn12)C(C)(C)C` [Compound 53, (R)-4-(4-(5-Chloro-7-((3,3-dimethylbutan-2-yl)amino)-[1,2,4]triazolo[1,5-a]pyrimidin-6-yl)-3,5-difluorophenyl)but-3-yn-1-ol], in series [1], the “brain GluTub (GluTub-to-total α-Tub ratio) relative to vehicle-treated mice” value is recorded as “significant elevations in brain GluTub”. Further, the fold induction at 1 µM in series [2] (4 h, 1 uM compound, read-out: AlfaTub (1uM)) stood at 0.98; in series [2] (4 h incubation, 1 μM, read-out: α-Tub 1 μM, fold-change compared to vehicle (DMSO)-treated cells), 0.98 ± 0.04; in series [5] (4 h, 1 uM compound, read-out: AcTub (1uM)), 3.67; in series [5] (4 h incubation, 1 μM, read-out: AcTub 1 μM, fold-change compared to vehicle (DMSO)-treated cells), 3.67 ± 0.34. The fold induction at 10 µM amounted to 0.98 in series [2] (4 h, 10 uM compound, read-out: AlfaTub (10 uM)); 0.98 ± 0.21 in series [2] (4 h incubation, 10 μM, read-out: α-Tub 10 μM, fold-change compared to vehicle (DMSO)-treated cells); 5.25 in series [5] (4 h, 10 uM compound, read-out: AcTub (10 uM)); 5.25 ± 0.89 in series [5] (4 h incubation, 10 μM, read-out: AcTub 10 μM, fold-change compared to vehicle (DMSO)-treated cells). The CC50 at 48 h in series [3] came out at 30.1 ± 4.8 nM; in series [4], 30.8 ± 4.7 nM. Moreover, in series [5] (1 uM compound, normalized), the “AcTub (1 uM - normalized)” value came to 0.57. In addition, the “AcTub (10 uM - normalized)” value in series [5] (10 uM compound, normalized) is given as 0.81. In addition, the “AcTub 1 μM, fold-change compared to positive control compound 5 (100 nM) (in parentheses)” value in series [5] (4 h incubation, 1 μM) stood at 0.57 fold-change. For the same compound, the “AcTub 10 μM, fold-change compared to positive control compound 5 (100 nM) (in parentheses)” value in series [5] (4 h incubation, 10 μM) is 0.81 fold-change.
